Assay results: patent US11654138B2, “Therapeutic agents for treating and preventing autoimmune diseases and cancer and a screening method” (KING FAISAL UNIVERSITY, priority 2019, dated 2023)

Assays:
Pocket X-mutant Arid5a = target: T1, Pocket X-mutant Arid5a (Mus musculus, UniProt Q3U108, F56C/L84A/V134A/Y137A); assay: Luciferase assay on Pocket X-mutant Arid5a (Phe56, Leu84, Val134, Tyr137 substitutions); assay type: cell-based; conditions: 40 μM
T1 construct: Flag; expressed in transfected cells; host or cells: HEK293T
T1 sequence (Q3U108 1-590 F56C/L84A/V134A/Y137A): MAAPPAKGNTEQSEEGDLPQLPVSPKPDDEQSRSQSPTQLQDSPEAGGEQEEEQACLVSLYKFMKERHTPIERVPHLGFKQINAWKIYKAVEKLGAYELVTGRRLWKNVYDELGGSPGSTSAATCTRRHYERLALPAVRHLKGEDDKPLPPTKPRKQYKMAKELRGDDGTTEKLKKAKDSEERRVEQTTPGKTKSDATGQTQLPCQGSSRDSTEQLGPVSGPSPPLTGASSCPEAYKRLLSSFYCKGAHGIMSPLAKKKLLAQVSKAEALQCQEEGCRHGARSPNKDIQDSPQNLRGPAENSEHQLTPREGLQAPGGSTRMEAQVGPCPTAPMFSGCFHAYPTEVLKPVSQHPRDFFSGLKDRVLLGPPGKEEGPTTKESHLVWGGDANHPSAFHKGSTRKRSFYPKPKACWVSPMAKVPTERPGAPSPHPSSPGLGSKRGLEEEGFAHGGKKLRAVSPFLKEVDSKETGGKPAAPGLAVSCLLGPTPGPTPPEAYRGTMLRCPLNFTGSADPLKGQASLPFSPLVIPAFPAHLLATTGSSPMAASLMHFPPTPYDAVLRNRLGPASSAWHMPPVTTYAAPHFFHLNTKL
Text: Briefly, HEK293T cells were transfected with luciferase pGL-3 and empty pcDNA3.1 plasmids (Control), or pGL-3 plasmid encoding the 3′UTR of OX40, Il6 or Stat3, together with Arid5a-expressing pcDNA3.1 plasmid. Substitution mutations were introduced to the wild-type (WT) Arid5a at Phe56, Leu84, Val134 and Tyr137. Single point mutations were used to substitute Phe56 (TTC) with Cys (TGC) and Val134 (GTC) with Ala (GCC). Sequential point mutations were used to substitute Leu84 (CTG) with Ala (GCG) and Tyr137 (TAT) with Ala (GCT). Luciferase activity from cell lysates is shown relative to Control in FIGS. 2A-2C.

peritoneal macrophages = assay: Cytokine secretion by LPS-stimulated peritoneal macrophages; assay type: cell-based, mice; conditions: 40 μM, LPS 0.5 μg/mL 24 h, compared to LPS alone
Description: (§1) The peritoneal macrophages were stimulated in vitro with 0.5 μg/mL lipopolysaccharides (LPS) (Sigma-Aldrich) for 24 h. The CD4^+ CD62L^+ T cells were isolated and purified from spleen using the MACS isolation kit (Miltenyi). The T cells were cultured in the presence of anti-CD3/CD28 dynabeads (Invitrogen), recombinant mouse IL-6 (30 ng/mL; R&D Systems), recombinant transforming growth factor-β (TGF-β) (4 ng/mL; R&D Systems), anti-interferon-γ (IFN-γ) and anti-IL-4 (10 μg/mL; Biolegend) for 72 h to generate Th17 cells.
The mRNAs and cytokines were quantified as follows. A first strand of cDNA was synthesized from total RNA by using the TaqMan reverse transcription kit. […] The relative expression of mRNAs was calculated by ΔΔCt method. For cytokines quantification in serum and cell culture supernatants, ELISA kits of IL-17a, IL-6, TNF-α (Invitrogen) were used following the manufacturer's instructions.
The anti-inflammatory activity of the Arid5a inhibitor POE was tested in vitro by measuring secretion of pro-inflammatory cytokines by macrophages and differentiated Th17 cells. […] The percentage of CD4^+OX40^+ T cells in the polarized Th17 cells was determined using flow cytometry; the results are shown in FIG. 3D. […]

[1] = test system: differentiated Th17 cells; assay: Th17 differentiation of naïve CD4+CD62L+ T cells; assay type: cell-based, mice; conditions: 40 μM, 72 h
Description: as §1
The mRNAs and cytokines were quantified as follows. A first strand of cDNA was synthesized from total RNA by using the TaqMan reverse transcription kit. The cDNA was amplified in the real-time PCR system ViiA7 using TaqMan gene expression assays of OX40 (Mm01261022_m1), Stat3 (Mm01219775_m1) and the endogenous control Gapdh (Mm99999915_g1). Kits, probes and reagents were from Applied Biosystems. The relative expression of mRNAs was calculated by ΔΔCt method. For cytokines quantification in serum and cell culture supernatants, ELISA kits of IL-17a, IL-6, TNF-α (Invitrogen) were used following the manufacturer's instructions.
Flow cytometry analysis was conducted using CD4^+ T cells cultured under Th17 cell-inducing conditions or CD4^+ T cells derived from CNS, which were fixed and stained with Per-CP-Cy5.5-conjugated anti-CD4 antibodies and PE-conjugated anti-OX40 antibodies (Biolegend). Analysis was carried out using Flowsight (Amnis).
The anti-inflammatory activity of the Arid5a inhibitor POE was tested in vitro by measuring secretion of pro-inflammatory cytokines by macrophages and differentiated Th17 cells. Briefly, peritoneal macrophages were stimulated with LPS (0.5 μg/mL) for 24 h in presence or absence of POE (40 μM). […] The percentage of CD4^+OX40^+ T cells in the polarized Th17 cells was determined using flow cytometry; the results are shown in FIG. 3D. Stat3 mRNA expression in the polarized Th17 cells was quantified by real-time PCR and normalized to Gapdh mRNA; the results are shown relative to those of untreated Th17 cells in FIG. 3E.

EAE = assay: Experimental autoimmune encephalomyelitis (EAE) model of multiple sclerosis; assay type: in vivo, C57BL/6 female mice
[2] = 0.5 mg i.p., day 24, vs corn oil, FIG. 5B

With O=C(CSc1nnc(-c2ccncc2)o1)c1ccccc1 [POE, 1-Phenyl-2-(5-pyridin-4-yl-[1,3,4]oxadiazol-2-ylsulfanyl)-ethanone] the “Inhibitory effect on stabilizing function of mutant Arid5a on OX40 3′UTR” value (Pocket X-mutant Arid5a; mutations at Phe56, Leu84, Val134, Tyr137, FIG. 2A) was “abolish the inhibitory effects of POE”, the “Inhibitory effect on stabilizing function of mutant Arid5a on Il6 3′UTR” value (Pocket X-mutant Arid5a; mutations at Phe56, Leu84, Val134, Tyr137, FIG. 2B) was “abolish the inhibitory effects of POE” and the “Inhibitory effect on stabilizing function of mutant Arid5a on Stat3 3′UTR” value (Pocket X-mutant Arid5a; mutations at Phe56, Leu84, Val134, Tyr137, FIG. 2C) was “abolish the inhibitory effects of POE”. For the same compound, the “Level of IL-6 in cell culture supernatant” value (peritoneal macrophages; FIG. 3A) was “reduces the level of IL-6”, the “Level of TNF-α in cell culture supernatant” value (peritoneal macrophages; FIG. 3B) was “does not affect the level of TNF-α” and the “Level of IL-17 in cell culture supernatant of polarized Th17 cells” value ([1]; compared to untreated Th17 cells, FIG. 3C) was “reduces the level of IL-17”. The “Frequency of CD4+OX40+ T cells in polarized Th17 cells” value ([1]; flow cytometry, FIG. 3D) was “reduces the frequency of CD4^+OX40^+ T cells”, the “Expression of Stat3 mRNA in polarized Th17 cells” value ([1]; real-time PCR normalized to Gapdh, FIG. 3E) was “reduces the expression of Stat3 mRNA” and the EAE clinical scores (EAE; 0.5 mg i.p. per day, days 0-3, vs corn oil, FIG. 5A) was “reduces EAE clinical scores”. For the same compound, the “Serum level of IL-6” value (EAE; [2]) was “reduces serum levels of IL-6 and TNF-α”, the “Serum level of TNF-α” value (EAE; [2]) was “reduces serum levels of IL-6 and TNF-α” and the “Expression of OX40 mRNA in CD4+ T cells isolated from the CNS” value (EAE; 10 days after disease induction, FIG. 5D) was “reduces the expression of OX40 mRNA”. The “Frequency of CD4+OX40+ T cells in the CNS” value (EAE; 10 days after disease induction, flow cytometry, FIG. 5E) was “reduces the frequency of CD4^+OX40^+ T cells” and the “Level of IL-17 in culture supernatant of encephalitogenic CD4+ T cells on restimulation” value (EAE; lymph node cells restimulated with MOG35-55 and IL-23 72 h, FIG. 5C) was “reduces the level of IL-17”.
